Patent US20120077705A1, “Methods for Identifying Autophagy Inducing Compounds” (President and Fellows of Harvard College, priority 2007, published 2012)
Several values for one entry are separate records, joined by “and”; a condition that tells them apart may be missing. Equal values may be shown once. Read-outs that look alike come from different tables or passages of the source. Non-standard residues stand in square brackets, D forms with d. Residues, ends and D or L forms follow the SMILES beside them. Nle = CCCC[C@H](N)C(=O)O

Columns and labels:
Format in all cases: cell-based
FYVE-RFP = assay: High-content analysis of FYVE-RFP fluorescence (PI(3)P level) in H4-FYVE cell line
Description: Class III PI(3)K Vps34 is a multifunctional protein. On the one hand, it catalyzes the phosphorylation of PI to generate PI(3)P and is of key importance in the endocytic and autophagosome membrane transport processes. At the same time, a compound formed from Vps34/beclin1 is involved in the regulation of autophagy initiation signaling. Therefore, while the autophagy process is taking place, the level of PtdIns(3)P should not be expected to decrease to a significant extent. A FYVE domain is a protein structure domain composed of approximately 70 amino acid residues and containing a zinc finger protein structure; it can bind specifically with PI(3)P. Generally, PI(3)P recruits proteins containing a FYVE domain in order to bind to the membrane of cellular organelles, and participate in protein trafficking and similar processes.
H4 cells were transfected with the fusion protein FYVP-red fluorescent protein (FYVE-RFP). After transfection, the cells were screened in order to obtain a suitable H4-FYVE cell line to be used as a screening platform to perform high-volume screening of compounds, which thereby indirectly reflected the effect of the compound on autophagy. Compounds which reduced FYVE-RFP fluorescence intensity were eliminated. In this experiment, change in the intensity, fluorescence and distribution of the protein marker FYVE-RFP recruited by PI(3)P before and after treatment with the potential autophagy inducing compound was assayed by high-content microscopic analysis.
DMSO was used to dilute, dissolve, and prepare a compound at different concentrations with each concentration repeated three times. A 96-well plate was inoculated with H4-FYVE cells at an appropriate density and treated with the compound for 2, 4, and 8 hours, respectively. […] If a compound affected FYVE expression or distribution, then this would be embodied precisely in the image and in the size and intensity of fluorescent spots and other numerical values.

LC3 II = assay: Western blot of LC3 II in H4-LC cells
Description: The autophagosome marker LC3 used in the compound-screening platform was subjected to the foregoing processing in the cytosol. Generally when the new LC3 synthesized within the cell was processed, it became cytosolic soluble LC3 I with molecular weight 18 Kd. […] The quantity of LC3 II content reflects to a certain degree the autophagic activity of a cell. Therefore, by assaying the content of LC3 II in the cell by means of the Western blot method, it is possible to further reflect the effect of the compound on autophagy.
H4-LC cells at an appropriate density were inoculated onto a 6-well plate, which was treated with a compound for 4 hours, after which the cells were collected and lysed. The protein fraction was harvested and SDS-PAGE was performed. Following electrophoresis separation the proteins were transferred to a membrane, and immunoblot analysis was performed. The cytoskeleton protein, actin, was used as an internal control.

GFP-polyQ-HA = assay: Degradation of expanded polyglutamine (GFP-polyQ-HA) in transfected H4 cells, anti-HA blot
Protocol: Large-scale accumulation of misfolded protein is a prominent feature of many neurodegenerative diseases. For example, the pathogenic mechanism of Huntington's disease is that a large amount of polyglutamine (polyQ) protein accumulates in the neurons and cannot be cleared away. Tests of polyQ elimination and degradation were used in this experiment to further determine the ability if the tested compounds to induce autophagy.
The compounds selected through screening were dissolved in DMSO and diluted in a stepwise manner in complete culture medium.

long-lived proteins = assay: Degradation of (3H) L-leucine labelled long-lived proteins in H4 cells; conditions: relative to blank control
Description: The process of autophagy is a protein degradation process, which primarily mediates the degradation of cellular organelles and long-lived proteins within the cell. Therefore, in the present experiment the detection of whether a compound promotes the degradation of long-lived proteins within the cell was used as an additional indicator of whether the tested compound induces autophagy.
DMSO was used to dilute, dissolve, and prepare a compound at different concentrations with each concentration repeated three times. A 96-well plate was inoculated with H4 cells at an appropriate density and treated with the compound for 2, 4, and 24 hours, respectively. […] One day prior to the experiment, cells were inoculated onto a 12-well plate at an appropriate density and cultured under normal conditions (DMEM +10% fetal calf serum). […] Then, a complete medium containing (3H) L-leucine was used to incubate the cells for 24 hours causing the cells to take in isotope-labeled leucine and undertake protein synthesis. After 24 hours, a complete culture medium was substituted and used to incubate the cells for 24 hours to degrade short-lived proteins. After the short-lived proteins had been degraded, a complete culture medium to which the compound had been added was substituted and used to incubate the cells. The radiation intensity of the culture medium was tested at 0, 1, 2, 4, and 24 hours, respectively. At 24 hours, the cells were collected and the intensity of the isotope within the cells was tested, and the percent of long-lived protein degradation relative to the blank control group at different times after the action of the compound was computed. Compounds that increased the degradation of long-lived proteins were selected by means oft-test.

[1] = H4-LC cells, 4 hours, immunoblot, FIG. 1
[2] = H4 cells transfected with GFP-polyQ-HA, 24 hours, screening concentration and dilutions 1:2.5, 1:5, 1:10, FIG. 2

| Compound | Relative fluorescent intensity of FYVE-RFP (%) (FYVE-RFP; H4-FYVE cells, 2 h) | Relative fluorescent intensity of FYVE-RFP (%) (FYVE-RFP; H4-FYVE cells, 4 h) | Relative fluorescent intensity of FYVE-RFP (%) (FYVE-RFP; H4-FYVE cells, 8 h) | further results |
| --- | --- | --- | --- | --- |
| CCCNCC(O)COc1ccccc1C(=O)CCc1ccccc1 (stereo not shown) [Propafenone] | 114.69 ± 8.90 | 78.75 ± 18.93 | 62.87 ± 3.38 |  |
| CO[C@@H]1C[C@@H](C[C@H]2CC[C@H](C)[C@H]([C@@H](C)C(=O)O)O2)O[C@]2(O[C@](C)([C@H]3CC[C@@](C)([C@@H]4O[C@@H]([C@H]5O[C@@](O)(CO)[C@H](C)C[C@@H]5C)C[C@@H]4C)O3)C[C@H]2C)[C@@H]1C [Nigericin] | 148.43 ± 5.17 | 145.40 ± 8.39 | 140.54 ± 18.21 |  |
| N#Cc1cc2c(OCC(O)CN3CCN(C(c4ccccc4)c4ccccc4)CC3)cccc2[nH]1 (stereo not shown) [SDZ-201106] | 65.87 ± 4.72 | 59.79 ± 2.38 | 72.40 ± 20.27 |  |
| CN(C)C(=O)C(CCN1CCC(O)(c2ccc(Cl)cc2)CC1)(c1ccccc1)c1ccccc1.Cl [Loperamide] |  |  |  | Increase of endogenous LC3 II / LC3 II/LC3 I percentage (LC3 II): increase of endogenous LC3 II |
| CC/C(=C(\c1ccccc1)c1ccc(OCCN(C)C)cc1)c1ccccc1 [Tamoxifen] | 77.66 ± 4.43 | 71.55 ± 0.73 | 85.37 ± 7.59 |  |
| CC[C@H](C)[C@H](NS(=O)(=O)c1ccc2ccccc2c1)C(=O)N[C@H](C=O)Cc1c[nH]c2ccccc12 [NapSul-Ile-Trp-CHO] | 89.37 ± 3.52 | 64.10 ± 11.47 | 62.34 ± 8.21 |  |
| C=C[C@H]1C[N@@]2CC[C@H]1C[C@H]2[C@H](O)c1ccnc2ccc(OC)cc12 [Quinine] | 70.35 ± 10.23 | 78.03 ± 6.33 | 60.70 ± 6.59 |  |
| CCCCc1oc2ccccc2c1C(=O)c1cc(I)c(OCCN(CC)CC)c(I)c1.Cl [Amiodarone] |  |  |  | Relative fluorescent intensity of FYVE-RFP (%) (FYVE-RFP): 92.50 ± 5.51% and 89.23 ± 3.47% and 83.45 ± 3.64%; polyQ degradation (GFP-polyQ-HA): increased polyQ degradation; Increase of endogenous LC3 II / LC3 II/LC3 I percentage (LC3 II; [1]): increase of endogenous LC3 II; Percent relative degradation of long-lived proteins (%) (long-lived proteins; 1 h): 101.32 ± 5.95%; Percent relative degradation of long-lived proteins (%) (long-lived proteins; 2 h): 122.42 ± 9.71%; Percent relative degradation of long-lived proteins (%) (long-lived proteins; 4 h): 110.75 ± 3.68%; Percent relative degradation of long-lived proteins (%) (long-lived proteins; 24 h): 116.73 ± 5.54% |
| COC(=O)[C@@]1(O)C[C@H]2O[C@]1(C)n1c3ccccc3c3c4c(c5c6ccccc6n2c5c31)C(=O)NC4 [K252A] | 76.86 ± 6.51 | 65.58 ± 9.36 | 70.33 ± 5.89 |  |
| O=C1NCN(c2ccccc2)C12CCN(CCCC(c1ccc(F)cc1)c1ccc(F)cc1)CC2 [Fluspirilene] |  |  |  | polyQ degradation (GFP-polyQ-HA; [2]): increased polyQ degradation |
| CCCC[C@@H](C=O)NC(=O)[C@H](CC(C)C)NC(=O)[C@H](CC(C)C)NC(C)=O [Ac-Leu-Leu-Nle-CHO] (Ac-Leu-Leu-[Nle]-aldehyde) | 72.86 ± 10.18 | 84.85 ± 2.83 | 88.42 ± 6.29 |  |
| CN1CCN(C2=Nc3cc(Cl)ccc3Nc3ccccc32)CC1 [Clozapine] | 64.04 ± 2.94 | 74.79 ± 13.43 | 78.38 ± 1.35 |  |
| CN(C)C[C@H](O)Cn1c2ccc(Br)cc2c2cc(Br)ccc21 (racemic) [Wiskostatin] | 267.90 ± 6.16 | 240.08 ± 4.26 | 131.93 ± 11.05 |  |
| CCN(CC)CCCCCCCCOC(=O)c1cc(OC)c(OC)c(OC)c1 [TMB-8] | 89.59 ± 4.79 | 74.72 ± 13.74 | 78.64 ± 10.26 |  |
| CN(CCc1ccc(Cl)c(Cl)c1)CC(O)COc1ccc(NS(C)(=O)=O)cc1 (stereo not shown) [AM 92016] | 68.06 ± 1.20 | 71.97 ± 15.67 | 66.35 ± 17.66 |  |
| CN1CCN(CCCN2c3ccccc3Sc3ccc(C(F)(F)F)cc32)CC1 [Trifluoperazine] | 136.58 ± 15.74 | 111.52 ± 13.45 | 94.28 ± 2.87 | polyQ degradation (GFP-polyQ-HA; [2]): increased polyQ degradation; Increase of endogenous LC3 II / LC3 II/LC3 I percentage (LC3 II; [1]): increase of endogenous LC3 II; Percent relative degradation of long-lived proteins (%) (long-lived proteins; 1 h): 76.62 ± 2.32%; Percent relative degradation of long-lived proteins (%) (long-lived proteins; 2 h): 105.60 ± 5.01%; Percent relative degradation of long-lived proteins (%) (long-lived proteins; 4 h): 109.00 ± 5.22%; Percent relative degradation of long-lived proteins (%) (long-lived proteins; 24 h): 124.78 ± 2.05% |
| CO[C@H]1C[C@@H]2CC[C@@H](C)[C@@](O)(O2)C(=O)C(=O)N2CCCC[C@H]2C(=O)O[C@H]([C@H](C)C[C@@H]2CC[C@@H](O)[C@H](OC)C2)CC(=O)[C@H](C)/C=C(\C)[C@@H](O)[C@@H](OC)C(=O)[C@H](C)C[C@H](C)/C=C/C=C/C=C/1C [Rapamycin] |  | 131.41 ± 26.64 |  |  |
| COC(=O)c1c(C)[nH]c(C)c1C(=O)c1ccccc1Cc1ccccc1 [FPL-64176] | 99.43 ± 9.62 | 78.17 ± 1.90 | 87.62 ± 2.42 |  |
| CC1=C2C[C@H]3[C@@H](CC=C4C[C@@H](O)CC[C@@]43C)[C@@H]2CC[C@]12O[C@@H]1C[C@H](C)CN[C@H]1[C@H]2C [Cyclopamine] | 108.75 ± 12.44 | 75.21 ± 1.18 | 96.38 ± 5.12 |  |
| CCCNC(=O)[C@H]1O[C@@H]1C(=O)N[C@H](C(=O)N1CCC[C@H]1C(=O)OC)[C@@H](C)CC [CA-074-Me] | 65.94 ± 12.73 | 79.82 ± 4.66 | 86.43 ± 4.15 |  |
| O=C(/C=C/c1ccc(O)c(O)c1)OCCc1ccccc1 [CAPE] | 86.89 ± 20.98 | 71.17 ± 18.70 | 69.14 ± 4.32 |  |
| COC(=O)C1=C(C)NC(C)=C([N+](=O)[O-])C1c1ccccc1C(F)(F)F (stereo not shown) [Bay K-8644] | 110.18 ± 25.18 | 57.79 ± 3.76 | 79.70 ± 7.28 |  |
| CC(C)(O)[C@H]1O[C@H]2CC[C@@]3(C)[C@@](O)(CC[C@H]4Cc5c([nH]c6ccccc56)[C@@]43C)C2=CC1=O [Paxilline] | 100.56 ± 0.58 | 52.37 ± 1.65 | 56.82 ± 4.44 |  |
